Assay results from patent US20060193786A1, “Pharmaceutical composition for intranasal administration containing a CGRP antagonist” (Boehringer Ingelheim Pharma GmbH & Co. KG, priority 2002, published 2006).

Experiment: Stability testing of more highly concentrated nasal spray solutions
Type: physicochemical
Conditions: for content of active substance (A): as free base
Procedure: Stability testing of more highly concentrated nasal spray solutions according to the invention:
The total decomposition which is high in some circumstances (particularly at 40° C.) is based on hydrolysis.
The content of active substance (A) given in Table 1 refers in each case to the free base originally weighed out.

[1] = active substance concentration 15, 3-month value, 25° C.
[2] = active substance concentration 15, 3-month value, 40° C.
[3] = active substance concentration 15, 6-month value, 25° C.
[4] = active substance concentration 15, 6-month value, 40° C.
[5] = active substance concentration 15, 6-week value, 25° C.
[6] = active substance concentration 15, 6-week value, 40° C.
[7] = active substance concentration 15, initial value
[8] = active substance concentration 20%, 3-month value, 25° C.
[9] = active substance concentration 20%, 3-month value, 40° C.
[10] = active substance concentration 20%, 6-month value, 25° C.
[11] = active substance concentration 20%, 6-month value, 40° C.
[12] = active substance concentration 20%, 6-week value, 25° C.
[13] = active substance concentration 20%, 6-week value, 40° C.
[14] = active substance concentration 20%, initial value
[15] = active substance concentration 30%, 3-month value, 25° C.
[16] = active substance concentration 30%, 3-month value, 40° C.
[17] = active substance concentration 30%, 6-month value, 25° C.
[18] = active substance concentration 30%, 6-month value, 40° C.
[19] = active substance concentration 30%, 6-week value, 25° C.
[20] = active substance concentration 30%, 6-week value, 40° C.
[21] = active substance concentration 30%, initial value

For `NCCCC[C@H](NC(=O)[C@@H](Cc1cc(Br)c(O)c(Br)c1)NC(=O)N1CCC(N2Cc3ccccc3NC2=O)CC1)C(=O)N1CCN(c2ccncc2)CC1` [(A), 1-[N^2-[3,5-dibromo-N-[[4-(3,4-dihydro-2(1H)-oxoquinazolin-3-yl)-1-piperidinyl]carbonyl]-D-tyrosyl]-L-lysyl]-4-(4-pyridinyl)-piperazine], the decomposition by oxidation [1] was 0.64%, the overall decomposition [1] was 1.69% and the “content of active substance (A)” value [1] was 147.7 mg/mL. The decomposition by oxidation [2] was 0.55%, the overall decomposition [2] was 8.22% and the “content of active substance (A)” value [2] was 139.4 mg/mL. The decomposition by oxidation [3] was 0.82%, the overall decomposition [3] was 2.07% and the “content of active substance (A)” value [3] was 147.7 mg/mL. For the same compound, the decomposition by oxidation [4] was 0.78%, the overall decomposition [4] was 15.33% and the “content of active substance (A)” value [4] was 131.7 mg/mL. For the same compound, the decomposition by oxidation [5] was 0.72%, the overall decomposition [5] was 1.60% and the “content of active substance (A)” value [5] was 148.1 mg/mL. For the same compound, the decomposition by oxidation [6] was 0.52%, the overall decomposition [6] was 4.46% and the “content of active substance (A)” value [6] was 142.3 mg/mL. The decomposition by oxidation [7] was 0.59%, the overall decomposition [7] was 1.23% and the “content of active substance (A)” value [7] was 148.6 mg/mL. For the same compound, the decomposition by oxidation [8] was 0.53%, the overall decomposition [8] was 1.50% and the “content of active substance (A)” value [8] was 202.8 mg/mL. The decomposition by oxidation [9] was 0.47%, the overall decomposition [9] was 8.23% and the “content of active substance (A)” value [9] was 191.4 mg/mL. The decomposition by oxidation [10] was 0.77%, the overall decomposition [10] was 1.99% and the content of active substance (A) [10] was 202 mg/mL. The decomposition by oxidation [11] was 0.74%, the overall decomposition [11] was 14.61% and the “content of active substance (A)” value [11] was 182.8 mg/mL. The decomposition by oxidation [12] was 0.54%, the overall decomposition [12] was 1.09% and the “content of active substance (A)” value [12] was 198.7 mg/mL. For the same compound, the decomposition by oxidation [13] was 0.55%, the overall decomposition [13] was 3.97% and the “content of active substance (A)” value [13] was 192.1 mg/mL. The decomposition by oxidation [14] was 0.56%, the overall decomposition [14] was 1.27% and the “content of active substance (A)” value [14] was 197.9 mg/mL. The decomposition by oxidation [15] was 0.60%, the overall decomposition [15] was 1.48% and the “content of active substance (A)” value [15] was 270 mg/mL. For the same compound, the decomposition by oxidation [16] was 0.59%, the overall decomposition [16] was 7.81% and the “content of active substance (A)” value [16] was 260 mg/mL. For the same compound, the decomposition by oxidation [17] was 0.91%, the overall decomposition [17] was 2.04% and the “content of active substance (A)” value [17] was 273 mg/mL. The decomposition by oxidation [18] was 0.84%, the overall decomposition [18] was 13.36% and the “content of active substance (A)” value [18] was 246 mg/mL. The decomposition by oxidation [19] was 0.62%, the overall decomposition [19] was 1.19% and the “content of active substance (A)” value [19] was 264 mg/mL. The decomposition by oxidation [20] was 0.58%, the overall decomposition [20] was 3.95% and the “content of active substance (A)” value [20] was 260 mg/mL. For the same compound, the decomposition by oxidation [21] was 0.56%, the overall decomposition [21] was 1.20% and the “content of active substance (A)” value [21] was 269 mg/mL. The oxidative decomposition (hydrochloride in aqueous solution, over a long period) was “virtually unchanged or increases only slightly”.
